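Protocol summary: plate cells (96-well), add compound at 5 concentrations, incubate 48 h, interpolate endpoints linearly. The concentration for 50% growth inhibition is given as GI50. TGI: total growth inhibition.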
Tests used:
Experiment in all cases: inhibition of tumour cell growth, NCI panel, 48 h
A498 renal = test system: A498 renal
HT29 colon = test system: HT29 colon
M14 melanoma = test system: M14 melanoma
SF-539 CNS = test system: SF-539 CNS
SK-MEL-2 melanoma = test system: SK-MEL-2 melanoma
UACC-62 melanoma = test system: UACC-62 melanoma
CAKI-1 renal = test system: CAKI-1 renal
SR leukemia = test system: SR leukemia
DU-145 prostate = test system: DU-145 prostate

| SMILES | TGI (A498 renal) | TGI (HT29 colon) | TGI (M14 melanoma) | TGI (SF-539 CNS) | TGI (SK-MEL-2 melanoma) | TGI (UACC-62 melanoma) | TGI (CAKI-1 renal) | TGI (SR leukemia) | GI50 (CAKI-1 renal) | GI50 (DU-145 prostate) | TGI (DU-145 prostate) | GI50 (M14 melanoma) | GI50 (SK-MEL-2 melanoma) | GI50 (UACC-62 melanoma) | GI50 (SF-539 CNS) | GI50 (SR leukemia) |
| --- | --- | --- | --- | --- | --- | --- | --- | --- | --- | --- | --- | --- | --- | --- | --- | --- |
| Cc1cccc(C)c1NC(=O)C(=O)C(C(=O)c1ccccc1-c1ccccc1)C1OC(=O)c2ccccc21 (centres undefined) | 48.9 µM | > 100 µM | 29.3 µM | 28.3 µM | 35.6 µM | 36.7 µM |  |  |  |  |  |  |  |  |  |  |
| Cc1cc(C)nc(NS(=O)(=O)c2ccc(NC(=O)c3cccc4c(Nc5ccc(S(N)(=O)=O)cc5)c5ccccc5nc34)cc2)n1 | > 100 µM | 97.1 µM | > 100 µM | 20.5 µM | > 31.1 µM | > 100 µM | > 100 µM |  |  |  |  |  |  |  |  |  |
| O=C(/C=C/c1ccccc1Cl)NC1C=Nc2ccc([N+](=O)[O-])cc2NC1 (centres undefined) | > 100 µM |  | > 100 µM | > 100 µM | > 100 µM | > 100 µM | > 100 µM | 96.2 µM |  |  |  |  |  |  |  |  |
| Cc1nc([N+](=O)[O-])cn1CC(=N)N | > 100 µM | > 100 µM | > 100 µM | > 100 µM | > 100 µM | > 100 µM |  | > 100 µM |  |  |  |  |  |  |  |  |
| CC(C)N(C(=O)C12C3C4C1(I)C1C2C3(I)C41C(=O)N(C(C)C)C(C)C)C(C)C (centres undefined) | > 100 µM | > 100 µM | > 100 µM | > 59.6 µM | > 100 µM | > 100 µM | > 100 µM |  |  |  |  |  |  |  |  |  |
| COC(=O)[C@H]1C=C[C@@H](C)n2c(=O)c3cc4ccccc4cc3c(=O)n21 | > 100 µM |  | > 100 µM | > 100 µM | > 100 µM |  | > 100 µM | > 100 µM |  |  |  |  |  |  |  |  |
| O=P1(c2ccccc2)CCCCC1 | > 100 µM | > 100 µM | > 100 µM | > 100 µM | > 100 µM | > 100 µM |  | > 100 µM |  |  |  |  |  |  |  |  |
| CCCN1CN(C(C(=O)N[C@@H]2C(=O)N3C2SC(C)(C)C3C(=O)O)c2ccc(O)cc2)CSC1=S (some centres undefined) | > 100 µM | > 100 µM | > 100 µM | > 100 µM | > 100 µM | > 100 µM | > 100 µM |  |  |  |  |  |  |  |  |  |
| CC1COC(C)(C)P(=O)(c2ccccc2)C1 (centres undefined) | > 100 µM | > 100 µM | > 100 µM | > 100 µM | > 100 µM | > 100 µM |  | > 100 µM |  |  |  |  |  |  |  |  |
| CCCO/S(=N\S(=O)(=O)c1ccccc1)c1ccccc1[N+](=O)[O-] (centres undefined) |  | > 100 µM | > 100 µM | > 100 µM | > 100 µM | > 100 µM | > 100 µM | > 100 µM |  |  |  |  |  |  |  |  |
| Cc1ccc(S(=O)(=O)c2ccc(N)cc2)cc1 | > 100 µM | > 100 µM | > 100 µM | > 100 µM | > 100 µM | > 100 µM | > 100 µM |  |  |  |  |  |  |  |  |  |
| COc1cc2c(c(OC)c1OC)-c1ncc3cc4c(cc3c1C2)OCO4 |  |  | > 100 µM |  | > 100 µM | > 100 µM | 71.7 µM |  | 18 µM | 23.2 µM | > 100 µM | 45.5 µM | 38.9 µM | 19.3 µM |  |  |
| Cc1c(/C=N/NC(=O)c2ccc(Cl)cc2)c(=O)n(-c2ccccc2)n1C |  | > 100 µM | > 100 µM | > 100 µM | > 100 µM | > 100 µM |  | > 100 µM |  |  |  |  |  |  |  |  |
| C/C(CC(=O)Nc1cccc(Cl)c1C)=N\NC(=O)c1ccncc1 |  | > 100 µM | > 100 µM | > 100 µM | > 100 µM | > 100 µM |  |  |  |  |  |  |  |  |  |  |
| CC(=O)O[C@H]1CCC2[C@@H]3CCC4Nc5[nH]ncc5C[C@]4(C)C3CC[C@@]21C (some centres undefined) | > 100 µM | > 100 µM | > 100 µM | > 100 µM | > 100 µM | 60.3 µM | > 100 µM |  |  |  |  |  |  |  |  |  |
| O=S(=O)(c1ccccc1)C1CN2OC1(S(=O)(=O)c1ccccc1)CC2c1ccc(Br)cc1 (centres undefined) | > 100 µM | > 100 µM | > 100 µM | 89.9 µM | > 100 µM | > 100 µM | > 100 µM |  |  |  |  |  |  |  |  |  |
| COc1ncc(-c2ccc3ncnc(Nc4cccc(Cl)c4)c3c2)cc1NS(=O)(=O)C1CC1 |  |  | > 100 µM | > 100 µM |  |  |  | > 100 µM |  |  |  | > 100 µM |  |  | 2.87 µM | > 100 µM |
| O=[N+]([O-])c1ccc(N2N=C(c3ccc(NCc4nc5ccccc5[nH]4)cc3)CC2c2ccco2)cc1 (centres undefined) | > 100 µM | 90.6 µM | 61.3 µM | 84.4 µM |  | 69.3 µM | > 100 µM | 33.8 µM |  |  |  |  |  |  |  |  |
| CN[C@@H](C)[C@@H](NC)c1ccccc1 | > 100 µM | > 100 µM | > 100 µM | > 100 µM |  | > 100 µM | > 100 µM |  |  |  |  |  |  |  |  |  |
| Cc1cc(NS(=O)(=O)c2ccc(Nc3c4ccccc4nc4c(C(=O)N5CCN(CCO)CC5)ccc(Cl)c34)cc2)no1 | > 100 µM | > 100 µM | > 100 µM | > 100 µM | > 100 µM | > 100 µM | > 100 µM |  |  |  |  |  |  |  |  |  |
| S=c1[nH]c(=S)c2nnn(-c3ccccc3)c2[nH]1 |  | > 100 µM | > 100 µM | > 100 µM | > 100 µM | > 100 µM | > 100 µM | > 100 µM |  |  |  |  |  |  |  |  |
| COC(=O)/C=C1\CCC(C)O1 (centres undefined) |  | > 100 µM | > 100 µM | > 100 µM | > 100 µM | > 100 µM | > 100 µM |  |  |  |  |  |  |  |  |  |

Reference: PubChem BioAssay (NCI)
